The values that follow are results of earlier work, collected in PubChem BioAssay AID1259409 (Chemical Carcinogenesis Research Information System (CCRIS), 2018).

Molecules are shown by their SMILES.

The series deals with rodent chemically induced tumor inhibition, incidence and multiplicity. Nature of the series: CCRIS tumor inhibitor studies. The settings on record: Route [Inhibitor]: ORAL, Species: RAT, Promoter: NONE USED. From the text:
The CCRIS database contains chemical records with carcinogenicity, mutagenicity, tumor promotion, and tumor inhibition test results. It was developed by the National Cancer Institute (NCI). Data are derived from studies cited in primary journals, current awareness tools, NCI reports, and other sources. Test results have been reviewed by experts in carcinogenesis and mutagenesis.
CCRIS provides historical information from the years 1985 - 2011. It is no longer updated.
This is an archive assay for CCRIS tumor inhibitor studies.

In the case of `CC1=C(/C=C/C(C)=C/C=C/C(C)=C/C=C2C(=O)CC(C)(C)CC2=O)C(C)(C)CCC1`, the “tumour outcome (control, treated, inhibition, significance)” value is, setting by setting: (Carcinogen: L-AZASERINE, 115-02-6, Dose [Inhibitor]: 1 MMOL/KG DIET DAILY FOR 365 D STARTING 1 WK AFTER COMPLETION OF CARCINOGEN TREATMENT (STUDY DURATION: 66 WK), Strain/Sex: WISTAR-LEWIS/FEMALE, Target Tissue: Type of Lesion: PANCREAS: ADENOMA, Dose [Carcinogen]: 10 MG/KG BW 1/WK FOR 15 WK) 50%, 33%, 34%, not significant; (Carcinogen: L-AZASERINE, 115-02-6, Dose [Inhibitor]: 1 MMOL/KG DIET DAILY FOR 365 D STARTING 1 WK AFTER COMPLETION OF CARCINOGEN TREATMENT (STUDY DURATION: 66 WK), Strain/Sex: WISTAR-LEWIS/FEMALE, Target Tissue: Type of Lesion: PANCREAS: CARCINOMA IN SITU, Dose [Carcinogen]: 10 MG/KG BW 1/WK FOR 15 WK) 8%, 21%, -163%, not calculated; (Carcinogen: L-AZASERINE, 115-02-6, Dose [Inhibitor]: 1 MMOL/KG DIET DAILY FOR 365 D STARTING 1 WK AFTER COMPLETION OF CARCINOGEN TREATMENT (STUDY DURATION: 66 WK), Strain/Sex: WISTAR-LEWIS/FEMALE, Target Tissue: Type of Lesion: PANCREAS: CARCINOMA, Dose [Carcinogen]: 10 MG/KG BW 1/WK FOR 15 WK) 13%, 4%, 69%, not significant; (Carcinogen: L-AZASERINE, 115-02-6, Dose [Inhibitor]: 1 MMOL/KG DIET DAILY FOR 365 D STARTING 1 WK AFTER COMPLETION OF CARCINOGEN TREATMENT (STUDY DURATION: 66 WK), Strain/Sex: WISTAR-LEWIS/FEMALE, Target Tissue: Type of Lesion: PANCREAS: NEOPLASM, Dose [Carcinogen]: 10 MG/KG BW 1/WK FOR 15 WK) 71%, 58%, 18%, not significant; (Carcinogen: L-AZASERINE, 115-02-6, Dose [Inhibitor]: 1 MMOL/KG DIET DAILY FOR 365 D STARTING 1 WK AFTER COMPLETION OF CARCINOGEN TREATMENT (STUDY DURATION: 66 WK), Strain/Sex: WISTAR-LEWIS/MALE, Target Tissue: Type of Lesion: PANCREAS: ADENOMA, Dose [Carcinogen]: 10 MG/KG BW 1/WK FOR 15 WK) 25%, 12%, 52%, not significant; (Carcinogen: L-AZASERINE, 115-02-6, Dose [Inhibitor]: 1 MMOL/KG DIET DAILY FOR 365 D STARTING 1 WK AFTER COMPLETION OF CARCINOGEN TREATMENT (STUDY DURATION: 66 WK), Strain/Sex: WISTAR-LEWIS/MALE, Target Tissue: Type of Lesion: PANCREAS: CARCINOMA IN SITU, Dose [Carcinogen]: 10 MG/KG BW 1/WK FOR 15 WK) 29%, 56%, -93%, not significant. The “tumour outcome (control, treated, inhibition, significance)” value was 46%, 16%, 65%, p<0.05 (Carcinogen: L-AZASERINE, 115-02-6, Dose [Inhibitor]: 1 MMOL/KG DIET DAILY FOR 365 D STARTING 1 WK AFTER COMPLETION OF CARCINOGEN TREATMENT (STUDY DURATION: 66 WK), Strain/Sex: WISTAR-LEWIS/MALE, Target Tissue: Type of Lesion: PANCREAS: CARCINOMA, Dose [Carcinogen]: 10 MG/KG BW 1/WK FOR 15 WK); 100%, 84%, 16%, not significant (Carcinogen: L-AZASERINE, 115-02-6, Dose [Inhibitor]: 1 MMOL/KG DIET DAILY FOR 365 D STARTING 1 WK AFTER COMPLETION OF CARCINOGEN TREATMENT (STUDY DURATION: 66 WK), Strain/Sex: WISTAR-LEWIS/MALE, Target Tissue: Type of Lesion: PANCREAS: NEOPLASM, Dose [Carcinogen]: 10 MG/KG BW 1/WK FOR 15 WK); 50%, 33%, 34%, not significant (Carcinogen: L-AZASERINE, 115-02-6, Dose [Inhibitor]: 2 MMOL/KG DIET DAILY FOR 330 D STARTING 1 WK AFTER COMPLETION OF CARCINOGEN TREATMENT (STUDY DURATION: 66 WK), Strain/Sex: WISTAR-LEWIS/FEMALE, Target Tissue: Type of Lesion: PANCREAS: ADENOMA, Dose [Carcinogen]: 10 MG/KG BW 1/WK FOR 15 WK); 8%, 17%, -113%, not calculated (Carcinogen: L-AZASERINE, 115-02-6, Dose [Inhibitor]: 2 MMOL/KG DIET DAILY FOR 330 D STARTING 1 WK AFTER COMPLETION OF CARCINOGEN TREATMENT (STUDY DURATION: 66 WK), Strain/Sex: WISTAR-LEWIS/FEMALE, Target Tissue: Type of Lesion: PANCREAS: CARCINOMA IN SITU, Dose [Carcinogen]: 10 MG/KG BW 1/WK FOR 15 WK); 13%, 0%, 100%, not significant (Carcinogen: L-AZASERINE, 115-02-6, Dose [Inhibitor]: 2 MMOL/KG DIET DAILY FOR 330 D STARTING 1 WK AFTER COMPLETION OF CARCINOGEN TREATMENT (STUDY DURATION: 66 WK), Strain/Sex: WISTAR-LEWIS/FEMALE, Target Tissue: Type of Lesion: PANCREAS: CARCINOMA, Dose [Carcinogen]: 10 MG/KG BW 1/WK FOR 15 WK); 71%, 50%, 30%, p 0.14 (Carcinogen: L-AZASERINE, 115-02-6, Dose [Inhibitor]: 2 MMOL/KG DIET DAILY FOR 330 D STARTING 1 WK AFTER COMPLETION OF CARCINOGEN TREATMENT (STUDY DURATION: 66 WK), Strain/Sex: WISTAR-LEWIS/FEMALE, Target Tissue: Type of Lesion: PANCREAS: NEOPLASM, Dose [Carcinogen]: 10 MG/KG BW 1/WK FOR 15 WK). Besides, the “tumour outcome (control, treated, inhibition, significance)” value is, setting by setting: (Carcinogen: L-AZASERINE, 115-02-6, Dose [Inhibitor]: 2 MMOL/KG DIET DAILY FOR 330 D STARTING 1 WK AFTER COMPLETION OF CARCINOGEN TREATMENT (STUDY DURATION: 66 WK), Strain/Sex: WISTAR-LEWIS/MALE, Target Tissue: Type of Lesion: PANCREAS: ADENOMA, Dose [Carcinogen]: 10 MG/KG BW 1/WK FOR 15 WK) 25%, 40%, -60%, not significant; (Carcinogen: L-AZASERINE, 115-02-6, Dose [Inhibitor]: 2 MMOL/KG DIET DAILY FOR 330 D STARTING 1 WK AFTER COMPLETION OF CARCINOGEN TREATMENT (STUDY DURATION: 66 WK), Strain/Sex: WISTAR-LEWIS/MALE, Target Tissue: Type of Lesion: PANCREAS: CARCINOMA IN SITU, Dose [Carcinogen]: 10 MG/KG BW 1/WK FOR 15 WK) 29%, 44%, -52%, not significant; (Carcinogen: L-AZASERINE, 115-02-6, Dose [Inhibitor]: 2 MMOL/KG DIET DAILY FOR 330 D STARTING 1 WK AFTER COMPLETION OF CARCINOGEN TREATMENT (STUDY DURATION: 66 WK), Strain/Sex: WISTAR-LEWIS/MALE, Target Tissue: Type of Lesion: PANCREAS: CARCINOMA, Dose [Carcinogen]: 10 MG/KG BW 1/WK FOR 15 WK) 46%, 0%, 100%, p<0.05; (Carcinogen: L-AZASERINE, 115-02-6, Dose [Inhibitor]: 2 MMOL/KG DIET DAILY FOR 330 D STARTING 1 WK AFTER COMPLETION OF CARCINOGEN TREATMENT (STUDY DURATION: 66 WK), Strain/Sex: WISTAR-LEWIS/MALE, Target Tissue: Type of Lesion: PANCREAS: NEOPLASM, Dose [Carcinogen]: 10 MG/KG BW 1/WK FOR 15 WK) 100%, 84%, 16%, not significant; (Carcinogen: N-METHYL-N-NITROSOUREA, 684-93-5, Dose [Inhibitor]: 406 MG/KG DIET DAILY FOR 24 WK STARTING 5 D AFTER LAST CARCINOGEN DOSE (STUDY DURATION: 32 WK), Strain/Sex: F344/MALE, Target Tissue: Type of Lesion: COLON: SARCOMA, Dose [Carcinogen]: 0.5 MG 2/WK FOR 8 WK) 5/40 (13%), 3/40 (8%), 38%, not calculated; (Carcinogen: N-METHYL-N-NITROSOUREA, 684-93-5, Dose [Inhibitor]: 406 MG/KG DIET DAILY FOR 24 WK STARTING 5 D AFTER LAST CARCINOGEN DOSE (STUDY DURATION: 32 WK), Strain/Sex: F344/MALE, Target Tissue: Type of Lesion: COLON: TUMOR, Dose [Carcinogen]: 0.5 MG 2/WK FOR 8 WK) 60%, 75%, -25%, not significant. Also, the “tumour outcome (control, treated, inhibition, significance)” value is reported as 62%, 49%, 21%, not significant (Carcinogen: N-METHYL-N-NITROSOUREA, 684-93-5, Dose [Inhibitor]: 406 MG/KG DIET DAILY FOR 38 WK STARTING 5 D AFTER LAST CARCINOGEN DOSE (STUDY DURATION: 44 WK), Strain/Sex: F344/MALE, Target Tissue: Type of Lesion: COLON: TUMOR, Dose [Carcinogen]: 0.5 MG 2/WK FOR 6 WK) and 31%, 35%, -13%, not significant (Carcinogen: N-METHYL-N-NITROSOUREA, 684-93-5, Dose [Inhibitor]: 406 MG/KG DIET DAILY FOR 48 WK STARTING 5 D AFTER LAST CARCINOGEN DOSE (STUDY DURATION: 52 WK), Strain/Sex: F344/MALE, Target Tissue: Type of Lesion: COLON: TUMOR, Dose [Carcinogen]: 0.5 MG 2/WK FOR 4 WK).
